Values belong to the molecule of their own block, whether it stands above or below them.
What was measured:
MR = biological target: T1, MR (Homo sapiens, UniProt P08235); test: Luciferase reporter assay for MR (HEK293T cells); format: cell-based; conditions: 0.4–10 μM, 5 nM aldosterone
T1 construct: host or cells: HEK293T
T1 sequence (P08235 1-984): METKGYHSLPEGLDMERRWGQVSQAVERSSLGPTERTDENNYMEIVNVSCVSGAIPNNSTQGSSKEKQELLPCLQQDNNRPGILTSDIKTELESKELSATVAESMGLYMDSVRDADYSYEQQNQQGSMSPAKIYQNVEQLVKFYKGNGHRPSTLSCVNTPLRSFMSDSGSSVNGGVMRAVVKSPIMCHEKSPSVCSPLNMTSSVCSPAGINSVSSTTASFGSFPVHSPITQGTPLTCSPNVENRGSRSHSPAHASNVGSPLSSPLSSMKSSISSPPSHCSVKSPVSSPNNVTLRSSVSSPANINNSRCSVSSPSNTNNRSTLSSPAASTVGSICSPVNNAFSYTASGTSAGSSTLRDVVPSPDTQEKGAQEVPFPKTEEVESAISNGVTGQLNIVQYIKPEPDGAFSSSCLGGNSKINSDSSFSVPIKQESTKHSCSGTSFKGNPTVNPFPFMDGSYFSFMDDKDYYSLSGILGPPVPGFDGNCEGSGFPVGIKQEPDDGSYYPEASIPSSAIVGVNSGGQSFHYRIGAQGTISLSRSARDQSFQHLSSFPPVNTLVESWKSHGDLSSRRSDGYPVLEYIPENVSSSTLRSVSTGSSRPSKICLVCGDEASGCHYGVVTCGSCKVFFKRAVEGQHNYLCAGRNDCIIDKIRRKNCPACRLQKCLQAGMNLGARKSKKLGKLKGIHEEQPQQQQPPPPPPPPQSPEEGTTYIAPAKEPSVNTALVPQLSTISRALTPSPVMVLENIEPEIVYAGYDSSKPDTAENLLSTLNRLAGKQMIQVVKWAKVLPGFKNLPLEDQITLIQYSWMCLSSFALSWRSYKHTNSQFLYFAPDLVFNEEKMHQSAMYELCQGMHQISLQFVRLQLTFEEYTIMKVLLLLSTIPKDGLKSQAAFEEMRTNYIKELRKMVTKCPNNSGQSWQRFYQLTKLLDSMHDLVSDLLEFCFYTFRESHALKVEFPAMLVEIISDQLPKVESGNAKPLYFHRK
Method: (§1) Luciferase Reporter Assays for PR, GR, and MR
(§2) PC3, HeLa, and HEK293T cells were cultured using 5% CSS RPMI-1640, 5% CSS RPMI-1640 and 10% FBS DMEM media in 96-well plates for 24 h, respectively. For PR induction, PC3 (1 × 10^4 cells/well) were transfected with 50 ng pcDNA3-PRB (#89130, Addgene), 24 ng pGL4.36[luc2P MMTV Hygro] (Promega) and 5 ng Renilla using HG-TransGeneTM transfection reagent (#TG-10012, Genomeditech) for 4 h. For GR induction, Hela (1 × 10^4 cells/well) were transfected with 71 ng pCMV -GR11 (#89105, Addgene), 24 ng pGL4.36[luc2P MMTV Hygro] (Promega) and 5 ng Renilla using lip3000 transfection reagent (#L3000075, Thermofisher) for 24 h. For MR induction, HEK293T (1 × 10^4 cells/well) were transfected with 71 ng pCMV-MR gifted by Liu et al. 28, 24 ng of pGL4.36[luc2P MMTV Hygro] (Promega) and 5 ng Renilla using lip3000 transfec tion reagent for 24 h. For the antagonistic models, 10 nM /well progesterone for PC3 cells , 1 nM/well dexamethasone for HeLa, and 5 nM/well aldosterone for HEK293T cells were added to stimulate the cells. Meanwhile, each cell line was treated with a series concentration of compounds (0.4, 2, and 10 μM). For the agonistic models, the cells were directly treated with the compounds without any hormones. Endogenous hormones progesterone, dexamethasone, and aldosterone were considered as agonists for PR, GR, and MR, respectively. The luciferase activities were assessed using the Dual-Glo Luciferase system (#E1910, Promega). […]

PR = biological target: T2, PR (Homo sapiens, UniProt P06401); test: Luciferase reporter assay for PR (PC3 cells); format: cell-based; conditions: 0.4 μM, 10 nM progesterone
T2 construct: host or cells: PC3
T2 sequence (P06401 1-933): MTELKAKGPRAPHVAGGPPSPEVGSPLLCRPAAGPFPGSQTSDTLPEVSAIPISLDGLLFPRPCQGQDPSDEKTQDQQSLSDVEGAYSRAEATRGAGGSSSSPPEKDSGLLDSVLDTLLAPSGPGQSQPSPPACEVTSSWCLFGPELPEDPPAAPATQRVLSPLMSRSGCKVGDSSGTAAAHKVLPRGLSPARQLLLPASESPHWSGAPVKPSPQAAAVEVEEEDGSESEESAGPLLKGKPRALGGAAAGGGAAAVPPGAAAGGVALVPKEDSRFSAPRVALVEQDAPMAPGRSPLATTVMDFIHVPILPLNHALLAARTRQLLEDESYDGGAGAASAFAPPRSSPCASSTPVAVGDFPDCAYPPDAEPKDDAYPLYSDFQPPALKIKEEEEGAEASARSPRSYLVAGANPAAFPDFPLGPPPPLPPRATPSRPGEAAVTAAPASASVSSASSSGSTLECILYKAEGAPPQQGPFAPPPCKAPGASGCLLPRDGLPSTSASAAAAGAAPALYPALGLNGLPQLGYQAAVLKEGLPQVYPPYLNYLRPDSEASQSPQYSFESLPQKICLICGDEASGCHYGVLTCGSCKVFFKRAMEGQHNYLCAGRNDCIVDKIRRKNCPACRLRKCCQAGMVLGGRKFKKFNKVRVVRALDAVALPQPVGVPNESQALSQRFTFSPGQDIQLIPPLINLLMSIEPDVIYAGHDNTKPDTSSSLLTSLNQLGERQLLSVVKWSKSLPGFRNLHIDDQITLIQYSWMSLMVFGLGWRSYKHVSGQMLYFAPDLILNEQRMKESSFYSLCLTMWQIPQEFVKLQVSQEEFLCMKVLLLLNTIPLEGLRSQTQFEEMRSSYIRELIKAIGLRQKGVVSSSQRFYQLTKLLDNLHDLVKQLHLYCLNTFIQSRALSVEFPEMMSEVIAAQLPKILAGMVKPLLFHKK
Method: as §1, §2

GR = biological target: T3, GR (Homo sapiens, UniProt P04150); test: Luciferase reporter assay for GR (HeLa cells); format: cell-based; conditions: 0.4 μM, 1 nM dexamethasone
T3 construct: host or cells: HeLa
T3 sequence (P04150 1-777): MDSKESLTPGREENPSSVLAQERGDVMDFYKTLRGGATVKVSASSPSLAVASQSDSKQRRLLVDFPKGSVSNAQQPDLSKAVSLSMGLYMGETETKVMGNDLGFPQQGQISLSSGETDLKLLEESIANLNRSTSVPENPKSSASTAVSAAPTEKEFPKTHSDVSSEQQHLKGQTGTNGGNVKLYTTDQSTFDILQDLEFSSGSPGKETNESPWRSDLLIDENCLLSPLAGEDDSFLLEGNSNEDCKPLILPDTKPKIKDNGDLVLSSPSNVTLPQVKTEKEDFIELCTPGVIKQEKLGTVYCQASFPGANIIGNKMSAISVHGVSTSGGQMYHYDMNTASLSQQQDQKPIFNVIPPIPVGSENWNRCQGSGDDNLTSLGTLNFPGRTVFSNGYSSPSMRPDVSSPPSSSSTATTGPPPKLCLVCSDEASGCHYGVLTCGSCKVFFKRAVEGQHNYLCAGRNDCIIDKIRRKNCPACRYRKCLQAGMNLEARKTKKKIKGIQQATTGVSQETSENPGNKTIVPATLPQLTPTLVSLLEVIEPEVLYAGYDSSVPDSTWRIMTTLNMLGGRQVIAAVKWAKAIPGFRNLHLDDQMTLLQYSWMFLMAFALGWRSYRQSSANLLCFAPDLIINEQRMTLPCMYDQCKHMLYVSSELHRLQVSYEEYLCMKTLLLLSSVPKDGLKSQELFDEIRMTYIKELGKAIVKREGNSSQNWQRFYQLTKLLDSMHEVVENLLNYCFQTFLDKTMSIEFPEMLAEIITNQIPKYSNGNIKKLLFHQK
Method: calculating volume (V= 0.5 × L × W2). Finally, the mice were sacrificed and the tumors were harvested for hematoxylin and eosin (H&E) staining.
as §1
Addgene), 24 ng pGL4.36[luc2P MMTV Hygro] (Promega) and 5 ng Renilla using HG- […]
Addgene), 24 ng pGL4.36[luc2P MMTV Hygro] (Promega) and 5 ng Renilla using lip3000 transfection reagent (#L3000075, Thermofisher) for 24 h. For MR induction, HEK293T (1 × 10^4 cells/well) were transfected with 71 ng pCMV-MR gifted by Liu et al. 28, 24 ng of pGL4.36[luc2P MMTV Hygro] (Promega) and 5 ng Renilla using lip3000 transfec tion reagent for 24 h. For the antagonistic models, 10 nM /well progesterone for PC3 cells , 1 nM/well dexamethasone for HeLa, and 5 nM/well aldosterone for HEK293T cells were added to stimulate the cells. Meanwhile, each cell line was treated […]
For the agonistic models, the cells were directly treated with the compounds without any hormones. […]
hormones progesterone, dexamethasone, and aldosterone were considered as agonists for PR, GR, and MR, respectively. The luciferase activities were assessed using the Dual-Glo Luciferase system (#E1910, Promega).
Cell Cycle and Apoptosis for LNCaP cells
LNCaP were cultured in 6-well plate with 5× 10^5 cells/well, after incubated at 37 °C for […]
Cell cycle were determined after 48 h incubation by Cell Cycle Staining Kit (#CCS012, MULTI SCIENCES) using […]

[1] = biological target: wild type androgen receptor ligand-binding domain (AR LBD) (human); test: cross-linking + other: SAXS; chemical cross-linking coupled with mass spectrometry (CXMS) of purified AR LBD; ensemble refinement against the cross-link restraints; dimer to monomer ratio fitted; with and without M17-B15

MR antagonistic activity (MR): potent
Molecule: CC(=O)S[C@@H]1CC2=CC(=O)CC[C@]2(C)[C@H]2CC[C@@]3(C)[C@@H](CC[C@@]34CCC(=O)O4)[C@H]12 [abbolactone]

Molecule: CC#C[C@]1(O)CC[C@H]2[C@@H]3CCC4=CC(=O)CCC4=C3[C@@H](c3ccc(N(C)C)cc3)C[C@@]21C [mifepristone]
PR antagonistic activity (PR): > 90%
GR antagonistic activity (GR): > 90%

proportion of the dimer (with M17-B15) [1]: 15%
proportion of the dimer (without M17-B15) [1]: 20%
Molecule: wild type androgen receptor ligand-binding domain (AR LBD) (domain or fragment)
